Where two headings read alike, the source gives them in different places.
Columns and labels:
[1] = system: latent HIV-1 in J89GFP cells; assay: Latent HIV-1 reactivation in J89GFP cells (EGFP positive cells, flow cytometry); assay type: cell-based
Protocol: (§1) Three different cell lines of HIV-1 latency were used in this study. These included J89GFP, U1 and ACH-2 cells. The J89GFP cells were a kind gift from Dr. David Levy. The ACH-2 and U1 cells were obtained through the AIDS Research and Reference Reagent Program, Division of AIDS, NIAID, NIH: Dr. Thomas Folks contributor [19]–[21]. Reactivation of latent HIV-1 in the J89GFP cells was measured by quantifying the percentage of EGFP positive cells using a BD FACScan flow cytometer with BD FACSDiva software (BD Biosciences, CA), as described previously. Reactivation of latent HIV-1 in the ACH-2 and U 1 cells was assessed by quantitative analysis of initiated and elongated HIV-1 transcripts, as described previously. All 3 cell lines were maintained in RMPI 1640 medium supplemented with 10% FBS, 0.3 mg/mL L-glutamine, 100 U/mL penicillin, and 100 µg/mL streptomycin at 37°C in humidified air with 5% CO2.
To identify novel activators of latent HIV-1 expression, we screened 640 pure natural products from the TimTec Natural Compound Library at a concentration of 10 ng/mL for 24 hrs in a Jurkat cell (J89GFP) model of latency for their cytotoxicity and ability to reactivate HIV-1 expression. J89GFP cells contain a stably integrated, full-length HIV-1 provirus with an enhanced GFP (EGFP) reporter incorporated into the viral genome. The viral genome in these cells is transcriptionally silent. However, upon stimulation viral transcription is activated and viral expression can be measured by EGFP production. […].

[2] = system: latent HIV-1 in ACH2 cell line; assay: Latent HIV-1 reactivation in ACH2 cells (quantitative PCR of early and late viral RNA transcripts); assay type: cell-based
Protocol: as §1
Figure 2 Latent HIV-1 reactivation activity of 57704, alone and in combination with other inducing agents, in the U1 and ACH2 cell line models of virus latency. HIV-1 expression was assessed by quantitative PCR analysis of early and late viral RNA transcripts. Where appropriate, TNFα was used as an activation control. (A) Latent HIV-1 reactivation of activity 57704 in the J89GFP cell line. […] EC50 values were determined in Sigma Plot by nonlinear regression, as described previously. […]

[3] = Cytotoxicity (MTT or CellTiter 96), 293T; assay type: cell-based; details: human, 293T cells; 24 hour incubation; mean ± SD, 3 replicates
Protocol: Following a 24 hour incubation period, cell viability was measured using either the MTT (Roche Applied Science, Indianapolis, IN) or CellTiter 96 proliferation (Promega, WI) assay.

[4] = system: latent HIV-1 in CD8+-depleted MNC; assay type: cell-based; details: for Copies HIV RNA/mL: 7 days
Description: Healthy HIV-1 uninfected blood donors and HIV-1-infected donors on suppressive cART with plasma HIV-1 RNA less than 50 copies/mL for >2 year provided written informed consent and underwent a large volume phlebotomy (100–200 mLs). The protocol for blood donation was approved by the Institutional Review Board of the University of Pittsburgh (IRB #PRO10070203).
CD8+T-cells were depleted from whole blood using RosetteSep Human CD8 Depletion Cocktail (StemCell Technologies, Vancouver, BC) according to manufacturer's instructions. 2×10^6 CD4^+ MNC cells were seeded in triplicate per treatment in 48-well plates and allowed to rest overnight. […] Activation controls were treated with CD3/CD28 Dynabeads (Life Technologies, Grand Island, NY). After 7 days of incubation, supernatants from triplicate wells were pooled, centrifuged (500 g×5 min), and stored at −80°C. HIV-1 RNA levels in supernatants were determined using the COBAS® AmpliPrep/COBAS® TaqMan® HIV-1 Test, v2.0 (Roche, Indianapolis, IN).

purified T cells = assay: Global T cell activation (surface expression of CD69, CD38 and HLA-DR); assay type: cell-based; details: different concentrations, up to 5 days
Description: Peripheral blood MNC were obtained from the blood of healthy donors by Ficoll-Paque PLUS (GE Healthcare, Piscataway, NJ) density gradient centrifugation. T cells were isolated using the Pan T Cell Isolation kit (Miltenyi Biotec, Auburn, CA) according to manufacturer's instruction. Briefly, non-T cells were depleted from the MNC using biotin-conjugated antibodies to CD14, CD15, CD16, CD19, CD34, CD36, CD56, CD123, and CD235a and anti-biotin-labeled magnetic beads. […] Cells were then washed twice with PBS, resuspended in PBS with 4% PFA and stored in the refrigerator until analysis. Samples were analyzed on a BD LSRII flow cytometer and analyzed using FACsDiva software (BD Biosciences, Mountain View, CA). Forward versus side scatter plot was used to define the live cell population and fluorescence gates were set based on isotype control fluorescence.

PI3K p110β RNA = assay type: cell-based; details: J89GFP cells; 5 µM
PI3K p110δ RNA = assay: PI3K isoform RNA transcript levels in J89GFP cells, p110δ; assay type: cell-based; details: 5 µM
PI3K p110γ RNA = assay: PI3K isoform RNA transcript levels in J89GFP cells, p110γ; assay type: cell-based; details: 5 µM
HDAC1 = molecular target: T1, HDAC1 (Homo sapiens, UniProt Q13547); assay: Fluorogenic HDAC activity assay, HDAC1; assay type: biochemical
T1 construct: purchased BPS Bioscience (San Diego, CA)
T1 sequence (Q13547 whole entry): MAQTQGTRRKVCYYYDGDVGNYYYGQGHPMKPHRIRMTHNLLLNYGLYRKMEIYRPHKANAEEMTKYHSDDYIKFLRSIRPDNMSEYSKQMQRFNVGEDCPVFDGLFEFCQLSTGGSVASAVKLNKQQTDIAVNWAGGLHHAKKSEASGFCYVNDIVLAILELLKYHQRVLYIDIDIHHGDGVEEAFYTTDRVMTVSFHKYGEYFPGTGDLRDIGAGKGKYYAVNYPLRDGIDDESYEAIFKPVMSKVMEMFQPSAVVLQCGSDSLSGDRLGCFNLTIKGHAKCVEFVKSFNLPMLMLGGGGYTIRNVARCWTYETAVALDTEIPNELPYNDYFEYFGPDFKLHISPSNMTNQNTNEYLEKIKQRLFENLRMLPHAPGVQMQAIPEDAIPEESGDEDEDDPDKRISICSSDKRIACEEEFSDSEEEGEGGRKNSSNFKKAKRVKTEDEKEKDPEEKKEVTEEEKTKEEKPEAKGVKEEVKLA
Protocol: The lysine deacetylase activity of HDACs 1, 2, 3, and 8 was assessed using the Fluorogenic HDAC Assay (BPS Bioscience, San Diego, CA) according to the manufacturer's instructions. The HDAC3 used in this assay was complexed with human nuclear receptor co-repressor 2 (NCOR2; amino acids 395–489), which is an activating co-factor of this HDAC isoform. All assays were carried out under steady-state conditions and the assay read-out was optimized for linearity both as a function of time and enzyme concentration. The formation of the fluorescent product was measured using a SpectraMax M2 Plate Reader (Molecular Devices, CA). The excitation and emission wavelengths were 360 nm and 450 nm, respectively. […]

Structure (SMILES): COc1cc2c(cc1OC)-c1c(OC)c(OC)cc3ccnc(c13)C2=O [Compound 57704, 1,2,9,10-tetramethoxy-7H-dibenzo[de,g]quinolin-7-one]
- EC50 ([1]; Human immunodeficiency virus 1, read-out: EC50, reactivation of latent HIV-1 gene expression): 10.3 ± 1.2 µM
- Latent HIV-1 reactivation activity in presence of PI3K inhibitor wortmannin ([1]; J89GFP, 20 nM wortmannin): significantly attenuated
- Latent HIV-1 reactivation activity in presence of p38 MAPK inhibitor SB203580 ([1]; J89GFP, 50 nM SB203580): unaffected
- Latent HIV-1 reactivation activity in presence of Akt Inhibitor IV ([1]; J89GFP, 500 nM Akt Inhibitor IV): significantly attenuated
- Latent HIV-1 reactivation activity in presence of PKC inhibitor Gö6983 ([1]; J89GFP, 500 nM Go6983): unaffected
- Latent HIV-1 reactivation activity in presence of JNK inhibitor SP600125 ([1]; J89GFP, 1 µM SP00125): unaffected
- Latent HIV-1 reactivation activity in presence of NFAT/calcineurin inhibitor cyclosporin A ([1]; J89GFP, 1 µM cyclosporin A): unaffected
- Latent HIV-1 reactivation activity in presence of PI3K p110γ inhibitor AS-605240 ([1]; J89GFP, 2 µM AS-605240): moderately enhanced
- Latent HIV-1 reactivation activity in presence of PI3K p110α specific inhibitor PI-103 ([1]; J89GFP, 2 µM PI-103): significantly attenuated
- Latent HIV-1 reactivation activity in presence of PI3K p110β inhibitor TGX-221 ([1]; J89GFP, 2 µM TGX-221): moderately enhanced
- Latent HIV-1 reactivation activity in presence of PI3K p110δ inhibitor IC87114 ([1]; J89GFP, 5 µM IC87114): not reduced
- Latent HIV-1 reactivation activity in presence of pan PI3K inhibitor LY 294002 ([1]; J89GFP, 15 µM LY294002): significantly attenuated
- Latent HIV-1 reactivation activity in presence of NF-κB inhibitor 6-amino-4-(4-phenoxyphenylethylamino) quinazoline ([1]; J89GFP, 20 µM NF-κB activation inhibitor): significantly attenuated
- EC50 ([2]; Human immunodeficiency virus 1, ACH-2, read-out: EC50, activation of early HIV-1 gene transcript expression): 9 µM
- EC50 ([2]; Human immunodeficiency virus 1, ACH-2, read-out: EC50, activation of late HIV-1 gene transcript expression): 6.2 µM
- CC50 at 24 h [3]: 106 ± 31.4 µM
- Increase of HIV-1 RNA in culture supernatants compared to the control ([4]; 5 µM 57704, mean of 4 donors): ~4 fold
- CD8+-depleted blood mononuclear cell preparations (donors) with increased HIV-1 expression ([4]; 4 donors on suppressive cART tested): 3 of 4
- Copies HIV RNA/mL ([4]; donor 1, 1 µM 57704, control 96): 0 copies/mL
- Copies HIV RNA/mL ([4]; donor 1, 5 µM 57704, control 96): 389 copies/mL
- Copies HIV RNA/mL ([4]; donor 2, 1 µM 57704, control 0): 79 copies/mL
- Copies HIV RNA/mL ([4]; donor 2, 5 µM 57704, control 0): 35 copies/mL
- Copies HIV RNA/mL ([4]; donor 3, 1 µM 57704, control 0): 10 copies/mL
- Copies HIV RNA/mL ([4]; donor 3, 5 µM 57704, control 0): 0 copies/mL
- Copies HIV RNA/mL ([4]; donor 4, 1 µM 57704, control 20): 20 copies/mL
- Surface expression of CD69, CD38 and HLA-DR (purified T cells): did not up-regulate
- Decrease of PI3K p110β RNA levels (PI3K p110β RNA): ~2 fold
- Effect on PI3K p110δ RNA transcript levels / gene expression (PI3K p110δ RNA): no effect
- Effect on PI3K p110γ RNA transcript levels (PI3K p110γ RNA): no effect
- IC50 (HDAC1): > 50 µM

From PMC3906007, “Discovery of a Small Molecule Agonist of Phosphatidylinositol 3-Kinase p110α That Reactivates Latent HIV-1” (PLoS ONE, 2014)
